The source of these data is patent US20220056037A1 (SPV THERAPEUTICS INC., priority 2018, published 2022).

Some results are limits rather than exact numbers.

Data set [1] can be described thus: Nonclinical pharmacokinetic study, IV and oral, in rats.
Procedure: Nonclinical pharmacokinetic (PK) parameters of lead CDK4/6/9 inhibitors were determined in an intravenous (IV) and oral study (p.o.) conducted in rats. Lead compounds were each administered as a single oral dose at 100 mg/kg or by IV bolus via the caudal vein at the dose of 30 mg/kg. Blood samples were collected at 0.25, 0.5, 1, 2, 4, 8, 12, and 24 hours post i.v. administration, and at 1, 2, 4, 8, 24 and 48 hours post oral administration. Plasma was processed for drug concentration analysis using a validated LCMS/MS method, and PK parameters were calculated by using WinNonlin.
The test system of data set [2] is LIXFH Hep G2. The data set is described as follows: 2D cell proliferation assay (CellTiter-Blue). The class given is cell-based. The note with it: Homo sapiens, HepG2, 72 h; cell line LIXFH Hep G2; three days of treatment; read-out: IC (abs. IC50). The protocol: (§1) Viability of the cells was analyzed by using the CellTiter-Blue® Cell Viability Assay (Promega), and was performed according to manufacturer's instructions. Briefly, cells were harvested from exponential phase cultures (Chapter 6.6), counted and plated in 96-well flat-bottom microtiter plates at a cell density of 4,000-60,000 cells/well in a volume of 140 μl per well. After a 24 hours recovery period, 10 μL cell culture medium (six control wells/plate) or culture medium with test compound were added (Chapter 6.2). The compounds were applied at five concentrations in full-log increments up to 100 μM in duplicate. Cultures were incubated at 37° C. and 5% CO2 in a humidified atmosphere for another three days. After three days of treatment, 20 μl/well CellTiter-Blue® reagent was added. Following incubation with CellTiter-Blue® reagent for up to four hours, fluorescence (FU) was measured by using the Enspire Multimode Plate Reader (excitation λ=570 nm, emission λ=600 nm). For calculations, the mean values of duplicate/sextuplicate (untreated control) data were used.
(§2) Drug effects were expressed in terms of the percentage of the fluorescence signal, obtained by comparison of the mean signal in the treated wells with the mean signal of the untreated controls (expressed by the test-versus-control value, T/C-value [%]):
(§3) IC values are reported as relative IC50 values and absolute IC50 and IC70 values. […] The absolute IC70 value gives the concentration of the test compound that achieves T/C=30%. The relative IC50 value is the concentration of test compound that gives a response half way between the top and bottom plateau of the sigmoidal concentration-response curve (inflection point of the curve). Calculation was done by 4parameter non-linear curve fit (Oncotest Data Warehouse Software).
(§4) If an IC50 or IC70 value could not be determined within the examined dose range (because a compound was either too active or lacked activity), the lowest or highest concentration studied was used for calculation of the geometric mean value.
(§5) The overall potency of a compound was determined by the geometric mean IC50/IC70 values of all individual IC50/IC70 values. In the heatmap representation of IC50 and IC70 values, the distribution of the IC50 or IC70 values obtained for a test compound in the individual cell lines is given in relation to the geometric mean […] or IC70 value, obtained over all PDX models tested. The individual IC values range from 1/32-fold geometric mean IC (corresponding to very potent compound activity or high tumor sensitivity) to 32-fold geometric mean IC (corresponding to lack of compound activity or tumor resistance). The heatmap presentation, therefore, represents an antiproliferative “fingerprint” profile of a test compound.

Data set [3] relates to MMXF U-266. The data set is described as follows: 2D cell proliferation assay (CellTiter-Blue). Particulars: Homo sapiens, 72 h; cell line MMXF U-266; three days of treatment; read-out: IC (abs. IC50). The class given is cell-based. Here is the method:
as §1, §2, §3, §4, §5
On the technique in general: Resazurin is reduced to fluorescent resorufin, in cell work by metabolically active cells.

The test system of data set [4] is MAXFTN BT-549. The data set is described as follows: 2D cell proliferation assay (CellTiter-Blue). The note with it: Homo sapiens, 72 h; cell line MAXFTN BT-549; three days of treatment; read-out: IC (abs. IC50). It is filed as cell-based. The protocol: as §1, §2, §3, §4, §5
Data set [5] concerns UXF MFE-319. Kind of data set: 2D cell proliferation assay (CellTiter-Blue). It is filed as cell-based. Particulars: 72 h; cell line UXF MFE-319; three days of treatment; read-out: IC (abs. IC50). The protocol: as §1, §2, §3, §4, §5
Data set [6] deals with CNXF U-87 MG. Kind of data set: 2D cell proliferation assay (CellTiter-Blue). It is filed as cell-based. The note with it: Homo sapiens, 72 h; cell line CNXF U-87 MG; three days of treatment; read-out: IC (abs. IC50). The protocol:
as §1, §2, §3, §4, §5

Data set [7] concerns LEXFAM MV4-11. Kind of data set: 2D cell proliferation assay (CellTiter-Blue). It is filed as cell-based. The note with it: Homo sapiens, 72 h; cell line LEXFAM MV4-11; three days of treatment; read-out: IC (abs. IC50). The protocol: as §1, §2, §3, §4, §5
Data set [8] deals with MAXFTN MDA-MB-231 (ER −). The data set is described as follows: 2D cell proliferation assay (CellTiter-Blue). The class given is cell-based. The note with it: Homo sapiens, 72 h; cell line MAXFTN MDA-MB-231 (ER −); three days of treatment; read-out: IC (abs. IC50). Here is the method: as §1, §2, §3, §4, §5
The subject of data set [9] is LXFL NCI-H1299. The data set is described as follows: 2D cell proliferation assay (CellTiter-Blue). The class given is cell-based. Particulars: Homo sapiens, 72 h; cell line LXFL NCI-H1299; three days of treatment; read-out: IC (abs. IC50). The protocol:
as §1, §2, §3, §4, §5

For data set [10], the system named is LXFL NCI-H460. The data set is described as follows: 2D cell proliferation assay (CellTiter-Blue). Particulars: Homo sapiens, 72 h; cell line LXFL NCI-H460; three days of treatment; read-out: IC (abs. IC50). The class given is cell-based. The protocol: as §1, §2, §3, §4, §5
The subject of data set [11] is LIXFH HEP-3B. The data set is described as follows: 2D cell proliferation assay (CellTiter-Blue). The note with it: Homo sapiens, Hep3B, 72 h; cell line LIXFH HEP-3B; three days of treatment; read-out: IC (abs. IC50). It is filed as cell-based. The protocol: as §1, §2, §3, §4, §5
The subject of data set [12] is LEXFAL MOLT-4. Kind of data set: 2D cell proliferation assay (CellTiter-Blue). The note with it: Homo sapiens, 72 h; cell line LEXFAL MOLT-4; three days of treatment; read-out: IC (abs. IC50). It is filed as cell-based. The protocol: as §1, §2, §3, §4, §5
Data set [13] relates to all cell lines tested. Kind of data set: 2D cell proliferation assay (CellTiter-Blue), geometric mean over the panel. It is filed as cell-based. The note with it: geometric mean of all individual IC50 values of Table 4; read-out: Geomean abs. IC50 value. Here is the method:
as §1, with “For calculations, the mean values of duplicate/sextuplicate (untreated control) data were used.” left out
as §4
The overall potency of a compound was determined by the geometric mean IC50/IC70 values of all individual IC50/IC70 values. […]

[14] abbreviates: rats, oral administration, 100 mg/kg, N = 3.

Regarding `CN1CCN(c2ccc(Nc3ncc4cc(C(=O)N(C)C)n(C56CC(C5)C6)c4n3)cc2)CC1` [SPV113], the Cmax came out at 6830 ng/mL in [1] (rat, plasma, iv, 30 mg/kg) and 2520 ng/mL in [1] (rat, plasma, po, 100 mg/kg). The same compound gave a clearance in [1] (rat, plasma, iv, 30 mg/kg) of 18.7 mL/min/kg. In data set [1] (rat, plasma, iv, 30 mg/kg), this compound showed a half-life of 5.73 h. In data set [1] (rat, plasma, po, 100 mg/kg), this compound came in with an MRT of 25.5 h. Moreover, the “BIOAVAILABILITY F” value in data set [1] (rats, oral 100 mg/kg vs IV bolus 30 mg/kg) stood at 33.3%. The same compound displayed an area under the curve (AUC) in data set [1] (setting [14]) of 33798 ng·h/mL. In data set [1] (setting [14]), the T1/2 was determined as 6.0 h. For the same compound, the 50% inhibitory concentration (IC50) in data set [2] was 124 nM; in [3], 655 nM; in data set [4], 713 nM; in data set [5], 667 nM; in data set [6], 100000 nM; in data set [7] it was ≤ 10 nM. For the same compound, the IC50 in data set [8] worked out at 340 nM; in [9] it was 1630 nM; in data set [10], 291 nM; in [11], 367 nM; in [12], 567 nM; in data set [13], 391 nM.

A word on the Cmax: it is the maximum level reached in the sampled fluid or tissue. One may read the half-life as the time in which the quantity being followed falls by half. A high value points to slow loss. The term MRT denotes a mean duration of stay, worked out from the concentration-time curve. As a reminder, the AUC is concentration integrated over time. A higher AUC goes with high exposure. The term IC50 denotes the concentration that inhibits the measured activity by half.
